Our source for the EC50 and IC50 values is patent publication US12497405B2, “Bicyclic heterocycle compounds methods of use thereof for the treatment of herpes viruses” (Merck Sharp & Dohme LLC, priority 2019, dated 2025).

The test system of one assay is HSV2. In words: Viral qPCR assay, HSV2. The format is cell-based. As to conditions: infected cells, viral genome copies by qPCR normalized to PPIA, read-out: HSV2 Cell EC50. In outline:
(§1)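 MRC5, Vero or MeWo cells mixed with virus and added to 10-point 3-fold compound dilutions, ~72 h at 37 °C. Lysates proteinase K-treated, viral gene and PPIA copies measured by TaqMan qPCR against plasmid standard curves; normalized viral copies scaled between uninfected and DMSO-infected controls, EC50 from 4-parameter fit.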

Assay [1] concerns the target Human cytomegalovirus DNA polymerase (Human cytomegalovirus (strain AD169) (HHV-5) (Human herpesvirus 5), UniProt P08546). In words: CMV polymerase assay (AlphaLISA). Format: biochemical. As to conditions: HCMV polymerase 0.2 nM, 30 min pre-incubation, 60 minute at 37° C. As for the experimental part:
(§2) Human cytomegalovirus and varicella zoster virus DNA polymerases were expressed via baculovirus vector in SF21 cells and purified. Heterodimeric nucleic acid substrate used in the herpesvirus polymerase reactions were generated by annealing a 59-mer template to a 17-mer digoxigenin-labeled primer. Polymerase (HCMV final concentration of 0.2 nM; VZV final concentration of 0.4 nM) was combined with an inhibitor compound or DMSO in assay buffer (10 mM HEPES, pH 7.5, 25 mM KCl, 25 mM NaCl, 5 mM MgCl2, 5% glycerol, 0.67 mg/ml bovine serum albumin, and 1 mM tris(2-carboxyethyl)phosphine)), and this mixture was pre-incubated for 30 minutes at room temperature in 384-well microtiter plates. The polymerization reaction was initiated by the addition of template/primer substrate (final concentration: 1.6 nM), and dNTPs (final concentration: 24 nM dCTP, 24 nMdGTP, 16 nM dATP, 16 nM dTTP, and 0.8 nM biotin-dUTP). After a 60 minute incubation period at 37° C., the reactions were terminated using quench buffer (25 mM HEPES pH 7.5, 100 mM NaCl, 0.25% Tween-20, 12 mM EDTA, and 1 mg/ml bovine serum albumin). Incorporation of biotinylated UTP was detected with 2.5-5 μg/mL anti-DIG AlphaLISA acceptor beads and 5-10 μg/mL streptavidin AlphaLISA donor beads (PerkinElmer). Compound effects were normalized to the window defined by the controls (DMSO only and pre-quenched wells), and were fit using a 4-parameter algorithm to report an IC50.
(In Alpha technology, singlet oxygen from a donor bead excites a nearby acceptor bead.)

A further assay relates to CMV. Put plainly: Viral qPCR assay, CMV. Format: cell-based. The note with it: infected cells, viral genome copies by qPCR normalized to PPIA, read-out: CMV Cell EC50. In outline: as §1
Assay [2] deals with varicella zoster virus DNA polymerase (Varicella-zoster virus (strain Dumas) (HHV-3) (Human herpesvirus 3), UniProt P09252). In words: VZV polymerase assay (AlphaLISA). Format: biochemical. As to conditions: VZV polymerase 0.4 nM, 30 min pre-incubation, 60 minute at 37° C. As for the experimental part:
as §2

Another assay concerns HSV1. In words: Viral qPCR assay, HSV1. As to conditions: infected cells, viral genome copies by qPCR normalized to PPIA, read-out: HSV1 Cell EC50. Format: cell-based. Put shortly: as §1
Background: Real-time PCR tracks product formation cycle by cycle.

Each structure is given as a SMILES string. Where two headings read alike, the source gives them in different places.

As a reminder, the EC50 is the concentration that produces a half-maximal response. Broadly, the IC50 is the concentration that inhibits the measured activity by half. `Cc1nc2cc(-c3cc(C(F)(F)F)[nH]n3)c(O[C@H]3CCN4C(=O)OC[C@@H]4C3)cc2c(=O)n1Cc1ccc(C#N)cc1` [Example 76]: the EC50 in the assay on HSV2 (Human alphaherpesvirus 2, 72 h) turned out to be 309 nM; with CMV (Human betaherpesvirus 5, 72 h) it was 261 nM; in the assay on HSV1 (Human alphaherpesvirus 1, 72 h), 412 nM. Further, the IC50 in assay [1] and in assay [2] was 11 nM each time.

`O=C1OC[C@@H]2C[C@@H](Oc3ccc4nc(C5CC5)n(Cc5ccc(Cl)cc5)c(=O)c4c3)CCN12` [Example 49]: the EC50 in the assay on HSV2 (Human alphaherpesvirus 2, 72 h) was found to be 1080 nM; in the assay on CMV (Human betaherpesvirus 5, 72 h), 369 nM; with HSV1 (Human alphaherpesvirus 1, 72 h) it was 1130 nM. The values for the IC50 in assay [1] and in assay [2] were 29 nM and 43 nM, respectively.

As to `O=C1OC[C@@H]2C[C@@H](Oc3cc4c(=O)n(Cc5ccc(Cl)cc5)ccc4nc3-c3cnco3)CCN12` [Example 38], the EC50 in the assay with HSV2 (Human alphaherpesvirus 2, 72 h) is 28 nM; with CMV (Human betaherpesvirus 5, 72 h), 24 nM; with HSV1 (Human alphaherpesvirus 1, 72 h), 48 nM. The IC50 was 1.1 nM in assay [1] and 0.33 nM in assay [2].

Regarding `Cc1nc2cc(-c3cc4n(n3)CCNC4)c(O[C@H]3CCN4C(=O)OC[C@@H]4C3)cc2c(=O)n1Cc1ccc(Cl)cc1` [Example 84], the EC50 in the assay on HSV2 (Human alphaherpesvirus 2, 72 h) amounted to 102 nM; in the assay on CMV (Human betaherpesvirus 5, 72 h) it was 177 nM; with HSV1 (Human alphaherpesvirus 1, 72 h) it was 113 nM. In addition, the IC50 in assay [1] and in assay [2] was 0.44 nM each time.

Consider `O=C1OC[C@@H]2C[C@@H](Oc3cnc4ccn(Cc5ccc(Cl)cc5)c(=O)c4c3)CCN12` [Example 25], for which the EC50 was 730 nM in the assay on HSV2 (Human alphaherpesvirus 2, 72 h); 569 nM in the assay with CMV (Human betaherpesvirus 5, 72 h); 1310 nM with HSV1 (Human alphaherpesvirus 1, 72 h). The IC50 in assay [1] came to 76 nM; in assay [2], 55 nM.

On to `COc1nc2ccc(O[C@H]3CCN4C(=O)OC[C@@H]4C3)cc2c(=O)n1Cc1ccc(Cl)cc1` [Example 58], for which the EC50 in the assay with HSV2 (Human alphaherpesvirus 2, 72 h) came out at 1140 nM; with CMV (Human betaherpesvirus 5, 72 h), 173 nM; in the assay on HSV1 (Human alphaherpesvirus 1, 72 h) it was 996 nM. Further, the IC50 turned out to be 23 nM in assay [1] and 47 nM in assay [2].

Consider `Cc1cc2ccn(Cc3ccc(Cl)cc3)c(=O)c2cc1O[C@H]1CCN2C(=O)OC[C@@H]2C1` [Example 26], for which the EC50 in the assay on HSV2 (Human alphaherpesvirus 2, 72 h) came to 356 nM; in the assay with CMV (Human betaherpesvirus 5, 72 h), 298 nM; in the assay on HSV1 (Human alphaherpesvirus 1, 72 h), 673 nM. Further, the results for the IC50 in assay [1] and in assay [2] were 13 nM and 18 nM, respectively.

`O=C1OC[C@@H]2C[C@@H](Oc3cc4c(=O)n(Cc5ccc(Cl)cc5)cnc4nc3-c3cnco3)CCN12` [Example 7]: the EC50 was 89 nM in the assay on HSV2 (~72 hrs), 104 nM in the assay with CMV (~72 hrs) and 118 nM in the assay on HSV1 (~72 hrs). Also, the IC50 in assay [1] is 4.6 nM; in assay [2], 9.2 nM.

Regarding `Cc1nc2cc(-c3cn[nH]c3)c(O[C@H]3CCN4C(=O)OC[C@@H]4C3)cc2c(=O)n1Cc1ccc(Cl)cc1` [Example 53], the EC50 in the assay with HSV2 (Human alphaherpesvirus 2, 72 h) was 35 nM; in the assay on CMV (Human betaherpesvirus 5, 72 h), 86 nM; with HSV1 (Human alphaherpesvirus 1, 72 h), 89 nM. In addition, the figures for the IC50 in assay [1] and in assay [2] were 0.76 nM and 0.56 nM, respectively.

For `C[C@@H]1CN(C2CCOC2)CCN1c1ccc2ncn(Cc3ccc(Cl)cc3)c(=O)c2c1` (single isomer, unassigned) [Example 44], the EC50 in the assay with HSV2 (Human alphaherpesvirus 2, 72 h) was 1250 nM; in the assay on CMV (Human betaherpesvirus 5, 72 h) it was 521 nM; in the assay with HSV1 (Human alphaherpesvirus 1, 72 h), 1460 nM. For the same compound, the IC50 came to 77 nM in assay [1] and 144 nM in assay [2].

For the compound `Cc1nc2cc(-c3cn(C(F)F)cn3)c(O[C@H]3CCN4C(=O)OC[C@@H]4C3)cc2c(=O)n1Cc1ccc(C#N)cc1` [Example 80], the EC50 in the assay with HSV2 (Human alphaherpesvirus 2, 72 h) was 227 nM; in the assay on CMV (Human betaherpesvirus 5, 72 h) it was 124 nM; in the assay with HSV1 (Human alphaherpesvirus 1, 72 h), 157 nM. In addition, the values for the IC50 in assay [1] and in assay [2] were 7.6 nM and 5.6 nM, respectively.

On to `Cc1nc2cc(CC(C)(C)O)c(O[C@H]3CCN4C(=O)OC[C@@H]4C3)cc2c(=O)n1Cc1ccc(Cl)cc1` [Example 3], for which the EC50 is 55 nM in the assay on HSV2 (~72 hrs), 37 nM in the assay on CMV (~72 hrs) and 75 nM with HSV1 (~72 hrs). Further, the IC50 in assay [1] was 2.4 nM; in assay [2] it was 0.5 nM.
